Measurements as given in publication PMC10447463, “Data-mining unveils structure–property–activity correlation of viral infectivity enhancing self-assembling peptides” (Nature Communications, 2023).
Several values for one entry are separate records, joined by “and”; a condition that tells them apart may be missing. Identical values can stand only once. Like-named read-outs stand apart in the source and are kept apart here.

Experiments:
[1] = tested on: HIV-1 infection of TZM-bl cells; assay: HIV-1 infectivity enhancement assay, β-galactosidase luminescence; format: cell-based; details: for Log10 Inf. rel. to EF-C: log10 of HIV-1 infection of TZM-bl cells relative to EF-C, Fig S15 source data, asymmetric std dev errors; for Rel-to EFC / n-fold to virus: Fig S8 panels B, D
[2] = format: physicochemical; details: STD prep
[3] = format: physicochemical
In short: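 Preformed peptide fibrils (1 mg/mL) mixed with 50 µM ThT in PBS, 15 min at RT, fluorescence ex 440/em 488 nm versus PBS blank, triplicates. Zeta potential: peptides at 1 mg/mL in PBS pH 7.4, aged 1 d at RT, diluted in 1 mM KCl, Smoluchowski from electrophoretic mobility.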

[4] = β-sheet content by ATR-FT-IR; format: physicochemical
In short: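 ATR FT-IR, diamond crystal, 64 scans, 2 cm^-1, on freeze-dried 1 mg/mL PNF; β-sheet per prior calculation. Fluorescamine CR: 3 kDa filter, DMSO redissolution, 20 min RT, ex 365/em 470 nm; values as n-fold enhancement over DMSO (set to 1).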

[5] = Feb2021, 1.3 µM value relative to virus only (0 µM)
[6] = Feb2021, log10 of infectivity relative to EF-C
[7] = Feb2021, n-fold infectivity relative to EF-C
[8] = Feb2021, unrounded values of the 1.3 µM column
[9] = infectivity class (low / medium / high) of each library peptide, main list in c1-c6, same classes repeated in sub-lists of sequences containing the hydrophobicity/charge patterns P+,H0,P+,H0,P0,H0,P0, P+,H0,P0,H0,P0,H0,P0, P+,H0,P0,H0
[10] = relative to blank 42.1851851851852 a.u.
[11] = Feb2021, Log10 of infectivity relative to EF-C
[12] = Feb2021, infectivity relative to virus only
[13] = Feb2021, n-fold enhancement relative to EF-C
[14] = Feb2021 run, infectivity n-fold relative to virus alone
[15] = Feb2021 run, log10 of infectivity relative to EF-C
[16] = Feb2021 run, n-fold infectivity relative to EF-C
[17] = infectivity enhancement relative to EF-C
[18] = infectivity n-fold relative to virus alone
[19] = ThT fluorescence relative to blank (42.1851851851852 a.u.)
[20] = ThT fluorescence relative to blank, blank = 42.1851851851852
[21] = infectivity class (low / medium / high) of the peptide in the sequence-pattern analysis, Fig. S22-A4, class limits not given
[22] = Feb2021, infectivity enhancement relative to EF-C
[23] = infectivity enhancement relative to EF-C (=1), Feb2021 run
[24] = infectivity n-fold relative to virus only, Feb2021 run
[25] = log10 of infectivity relative to EF-C, Feb2021 run

| Substance | n-fold to virus (Feb2021) [1, 5] | Log10 of Rel to EFC (Feb2021) [1, 6] | Rel-to EFC (Feb-2021) [1, 7] | Absolute Infectivity / RLU /s (Feb2021) [1, 8] [RLU /s] | infectivity [1, 9] | Log10 Inf. rel. to EF-C [1] | TEM: 1= fibrils, 0= aggregates (micelle), 0.5 = aggregates and fibrils, -1 = nothing obersved, STD prep [2] | Tht category (> 1.5 to blank = +) ([3]; category 1/0) | Tht rel to blank (42.1851851851852) [3, 10] | FTIR ß-sheet content/ % ([4]; ATR-FT-IR) | Log10 of Rel to EFC (Feb2021) [1, 11] | Rel-to EFC (Feb-2021) [1, 13] | n-fold to virus (Feb2021) [1, 14] | Log10 of Rel to EFC (Feb2021) [1, 15] | Rel-to EFC (Feb-2021) [1, 16] | Rel-to EFC [1, 17] | n-fold to virus [1, 18] | Tht rel to blank (42.1851851851852) [3, 19] | FTIR ß-sheet content/ % [4] [%] | other results |
| --- | --- | --- | --- | --- | --- | --- | --- | --- | --- | --- | --- | --- | --- | --- | --- | --- | --- | --- | --- | --- |
| CRFRVPF [CN8] | 0.837 | -1.701 | 0.01992 | 376.7 | low | -1.701 | 0 | 0 (ThT-inactive (N-Fold <2)) | 0.9438 | 11.43% |  |  |  |  |  |  |  |  |  |  |
| QCKFKQFFNMWQ [CK10] |  |  | 0.2478 |  | medium | -0.6059 | 0.5 | 1 (ThT. Cat is 1, if Rel. ThT >2) | 25.38 | 42% and 41.78% | -0.606 | 0.2478 | 6.098 | -0.606 | 0.2478 | 0.2478 | 6.098 | 25.38 | 41.78 | n-fold to virus (Feb2021) [1, 12]: 6.098; Tht rel to blank (42.1851851851852) [3, 20]: 25.38 |
| CKFKFQF [BL4] | 51.79 |  | 1.233 | 20066.66667 |  | 0.09083 | 1 | 1 (ThT. Cat is 1, if Rel. ThT >2) | 2.251 | 47% and 47.43% | 0.09083 | 1.233 | 51.79 | 0.09083 | 1.233 | 1.233 | 51.79 | 2.251 | 47.43 | infectivity [1, 21]: high |
| KIKIQINMWQ [JG1] | 12.47 | -0.5276 | 0.2968 | 6650 | medium | -0.5276 | 1 | 1 (ThT. Cat is 1, if Rel. ThT >2) | 5.939 | 42% and 42.41% | -0.5276 | 0.2968 | 12.47 | -0.5276 | 0.2968 |  |  | 5.939 | 42.41 | TEM: 1= fibrils, 0= aggregates (micelle), 0.5 = aggregates and fibrils, -1 = nothing obersved, STD prep ([2]; FigS26): 1; Tht category (> 1.5 to blank = +) ([3]; FigS26): 1 (Tht category (> 1.5 to blank = +)) |
| KAKAQA [JJA2 / TM153] | 0.7586 |  | 0.01805 | 146.7 | low | -1.743 | 0 | 0 (ThT-inactive (N-Fold <2)) | 1.172 | 40% and 40.34% | -1.743 | 0.01805 | 0.7586 | -1.743 | 0.01805 |  |  | 1.172 | 40.34 |  |
| CHLHLQL [CN9] | 4.127 | -1.008 | 0.09822 | 2934 | low | -1.008 | 0.5 | 1 (ThT. Cat is 1, if Rel. ThT >2) | 3.241 | 49.52% |  |  |  |  |  | 0.09822 | 4.127 |  |  |  |
| KFKFQF [JJA6] | 2.575 |  | 0.06128 | 686.7 | low | -1.213 | 0.5 | 0 (ThT-inactive (N-Fold <2)) | 1.156 | 46% | -1.213 | 0.06128 | 2.575 | -1.213 | 0.06128 |  |  | 1.156 | 46 |  |
| CEFEFQFNMWQ [TM140] | 5.923 |  | 0.141 | 2517 | medium | -0.8509 | 1 | 1 (ThT. Cat is 1, if Rel. ThT >2) | 6.057 | 51% and 51.48% | -0.8509 |  |  |  |  |  |  | 6.057 |  | Rel-to EFC (Feb-2021) [1, 22]: 0.141 |
| CKIKQIINM [BL1] |  |  | 0.4971 |  | medium | -0.3035 | 1 | 1 (ThT. Cat is 1, if Rel. ThT >2) | 14.67 | 46% | -0.3035 | 0.4971 | 20.89 | -0.3035 | 0.4971 |  |  | 14.67 | 46 | Absolute Infectivity / RLU /s (Feb2021) ([1]; Feb2021, figures match the 1.3 µM column): 11280 RLU /s; n-fold to virus (Feb2021) [1, 12]: 20.89; Tht rel to blank (42.1851851851852) [3, 20]: 14.67 |
| KIKQIINM [JGA2] |  |  |  |  | medium | -0.3458 | 1 |  |  | 44% | -0.3458 | 0.451 |  |  |  |  |  | 1.176 | 44 | Rel-to EFC (Feb-2021) [1, 23]: 0.451; n-fold to virus (Feb2021) [1, 24]: 18.95; Log10 of Rel to EFC (Feb2021) [1, 25]: -0.3458 |
| CKIKIQI [MG3b] | 42.81 | 0.008101 | 1.019 | 19406.66667 |  | 0.0081 | 1 | 1 (ThT. Cat is 1, if Rel. ThT >2) | 3.939 | 53% | 0.008101 | 1.019 | 42.81 | 0.008101 | 1.019 | 1.019 | 42.81 | 3.939 | 53 | Rel-to EFC (Feb-2021) [1, 22]: 1.019; infectivity [1, 21]: high; Rel-to EFC (Feb-2021) [1, 23]: 1.019; n-fold to virus (Feb2021) [1, 24]: 42.81; Log10 of Rel to EFC (Feb2021) [1, 25]: 0.008101; TEM: 1= fibrils, 0= aggregates (micelle), 0.5 = aggregates and fibrils, -1 = nothing obersved, STD prep ([2]; FigS26): 1 |
